Data on three compounds can be found in patent US20130040990A1, “SYNTHESIS OF DGJNAc FROM D-GLUCURONOLACTONE AND USE TO INHIBIT ALPHA-N-ACETYLGALACTOSAMINIDASES” (The Chancellor, Masters and Scholars of the University of …, priority 2010, published 2013).

The target in experiment [1] is β-hexosaminidase from Jack bean. Put plainly: Inhibition of β-hexosaminidase from Jack bean. Type of experiment: biochemical.
Experiment [2] concerns the target α-N-acetylgalactosaminidase (GalNAcase) from Charonia lampas. Put plainly: Inhibition of GalNAcase from Charonia lampas. Type of experiment: biochemical. The note with it: competitive inhibition.
Experiment [3] deals with T1, α-N-acetylgalactosaminidase (GalNAcase) from chicken liver (Gallus gallus, UniProt Q90744).
T1 construct: from tissue; host or cells: chicken liver
T1 sequence (Q90744 1-405): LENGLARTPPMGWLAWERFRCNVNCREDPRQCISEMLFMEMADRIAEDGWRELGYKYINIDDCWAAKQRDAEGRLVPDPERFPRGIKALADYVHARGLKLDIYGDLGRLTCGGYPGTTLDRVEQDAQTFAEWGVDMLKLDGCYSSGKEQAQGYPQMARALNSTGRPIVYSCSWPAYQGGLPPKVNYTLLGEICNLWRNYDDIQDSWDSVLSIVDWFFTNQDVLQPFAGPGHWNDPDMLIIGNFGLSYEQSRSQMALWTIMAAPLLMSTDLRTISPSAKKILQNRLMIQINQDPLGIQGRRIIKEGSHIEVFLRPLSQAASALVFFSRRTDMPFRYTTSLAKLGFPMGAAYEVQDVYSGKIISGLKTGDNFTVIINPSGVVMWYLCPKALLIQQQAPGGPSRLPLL
Description: Inhibition of GalNAcase from chicken liver. Type of experiment: biochemical. As to conditions: competitive inhibition.

Experiment [4] has as its target β-hexosaminidase from HL-60. Description: Inhibition of β-hexosaminidase from HL-60. Type of experiment: biochemical.
The target in experiment [5] is T2, coffee bean α-galactosidase (Coffea arabica, UniProt Q42656).
T2 construct: coffee bean α-galactosidase; from tissue; host or cells: coffee bean
T2 sequence (Q42656 16-378): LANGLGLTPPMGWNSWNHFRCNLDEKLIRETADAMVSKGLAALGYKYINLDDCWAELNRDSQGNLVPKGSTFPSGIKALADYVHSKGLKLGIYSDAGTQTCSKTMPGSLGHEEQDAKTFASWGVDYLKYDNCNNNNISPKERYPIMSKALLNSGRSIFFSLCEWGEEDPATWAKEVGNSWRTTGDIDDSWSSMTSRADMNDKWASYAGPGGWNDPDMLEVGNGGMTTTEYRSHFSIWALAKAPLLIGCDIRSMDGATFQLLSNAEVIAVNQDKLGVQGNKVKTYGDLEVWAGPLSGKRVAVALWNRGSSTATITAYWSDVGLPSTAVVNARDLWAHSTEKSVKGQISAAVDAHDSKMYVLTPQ
Put plainly: biochemical.

Experiment [6] deals with β-hexosaminidase from human placenta. Put plainly: Inhibition of β-hexosaminidase from human placenta. In kind it is biochemical. The note with it: for Ki: 1L non-competitive, 1D competitive.
Experiment [7] addresses β-hexosaminidase from bovine kidney. Description: Inhibition of β-hexosaminidase from bovine kidney. In kind it is biochemical.
Experiment [8] has as its system α-N-acetylgalactosaminidases. Put plainly: Inhibition of α-N-acetylgalactosaminidases (source not given). Type of experiment: biochemical.
A further experiment has as its system β-hexosaminidases. As to conditions: literature statement; cited from earlier work.
A further experiment deals with GalNAcases. The note with it: literature statement; cited from earlier work.

Structures are written as SMILES.

Turning to `CC(=O)N[C@H]1CN[C@H](CO)[C@H](O)[C@@H]1O` [DGJNAc 1D, 2-acetamido-1,2-dideoxy-D-galacto-nojirimycin], the IC50 in experiment [1] stood at 1.8 µM; in [4], 2.2 µM; in experiment [5] it was 64 µM; in experiment [6] it was 8.3 µM; in experiment [7], 4.2 µM. Further, the Ki in experiment [2] stood at 0.136 µM; in experiment [3], 0.081 µM; in experiment [6] it was 2.2 µM.
With `CC(=O)NC1CNC(CO)C(O)C1O` [L-DGJNAc 1L], the “inhibition of α-N-acetylgalactosaminidases” value in [8] is on record as “no inhibition”. Besides, the “inhibition of coffee bean α-galactosidase” value in [5] is listed as “no inhibition”. In [6], the Ki was determined as 1100 µM.
For the compound `CC(=O)N[C@H]1c2nc(CC(=O)O)cn2[C@H](CO)[C@H](O)[C@@H]1O` [nagstatin 4, nagstatin], in the experiment on β-hexosaminidases, the “inhibition of β-hexosaminidases” value was “potent inhibitor”. In addition, in the experiment on GalNAcases, the “inhibition of GalNAcases” value was “does not inhibit”.

One may read the IC50 as the point on the concentration scale where inhibition reaches its midpoint. One may read the Ki as the equilibrium dissociation constant of an inhibitor or competing ligand from its target. A low value points to higher affinity.
